“And” between values parts separate entries of the source, which are not always exact repeats. Equal entries are not always repeated.
Key:
[1] = target: T1, purified recombinant IDO1 (Homo sapiens, UniProt P14902); assay: Enzymatic IDO1 inhibition assay (ascorbate/methylene blue reduction system, HPLC detection of kynurenine); type: biochemical; conditions: for IC50: enzymatic, L-Trp 100 µM, 0.01% Triton X-100, 5% DMSO, 20 min at room temperature, pH 6.5, duplicates, read-out: IC50 [ μ M] (SD); for LE [kcal/mol/HA]: ligand efficiency, LE = -RT log(IC50)/number of heavy atoms, from enzymatic IC50
T1 construct: Full-length human IDO1 gene was cloned into the pET-28a vector; inferred from pET-28a vector and HisTrap purification; made in house; host or cells: E. coli Rosetta (DE3)
Procedure: Enzymatic IC50 values were measured with the ascorbate/methylene blue reduction system[85] in presence of a non-ionic detergent to reduce compound aggregation as described before[28]. Kynurenine and L-Trp concentrations were determined by HPLC through UV detection.
Full-length human IDO1 gene was cloned into the pET-28a vector and expressed in E. coli Rosetta (DE3) cells. […] The culture was harvested and frozen at −80 °C until further use. The frozen cells were lysed by sonication in 20 mM Tris pH 7, 400 mM NaCl, 1 mM MgCl2, 20 mM imidazole, 1 mM DTT, 0.5 mg/mL Lysozyme and Protease inhibitor. After centrifugation, the supernatant was loaded into a HisTrap HP column pre-equilibrated with buffer containing 20 mM Tris pH 7, 500 mM NaCl and 20 mM imidazole, and eluted with the same buffer containing 500 mM imidazole. Fractions containing IDO1 were pooled, concentrated, and injected on a size exclusion chromatography column (HiLoad Superdex S75 16/60) to increase purity. hIDO1 fractions were concentrated to 20 mg/mL in 20 mM Tris pH 7 and 150 mM NaCl.
The enzymatic inhibition assays were performed as described by Takikawa et al.[130] with some modifications. Briefly, the reaction mixture (100 µL) contained potassium phosphate buffer (100 mM, pH 6.5) ascorbic acid (20 mM), catalase (400 units/mL), methylene blue (10 µM), purified recombinant IDO1 (2.5 ng/µL), L-Trp (100 µM), Triton X-100 (0.01%) and DMSO (5 µL). The inhibitors were serially diluted 3-fold for at least 8 different concentrations. After incubation at room temperature for 20 min, the reaction was stopped in its linear phase by addition of trichloroacetic acid solution (40 mL, 30% w/v), and the samples were incubated at 50 °C for 30 min. After centrifugation, 80 µl of supernatant from each well were used for HPLC analysis. The mobile phase for HPLC analysis was composed of 50% (v/v) of methanol and 50% of sodium citrate buffer (40 mM, pH 2.4) containing 400 µM sodium dodecyl sulphate. […] All assays were carried out in duplicates. The activity (Act) of each compound was calculated as Act = RT log(IC50) in analogy to the relation between the binding free energy and the Ki value. The ligand efficiency (LE) was calculated as LE = −Act/NHA, where NHA is the number of non-hydrogen atoms (heavy atoms) in the compound.

hIDO1 = target: T2, hIDO1 (Homo sapiens, UniProt P14902); assay: Cellular hIDO1 inhibition (kynurenine production) in transiently transfected HEK 293 T cells; type: cell-based
T2 construct: The full ORF of hIDO1 was cloned into the mammalian expression vector pcDNA6/myc-His; myc-His (vector-encoded); host or cells: HEK 293 T
Procedure: (§1) We tested the cellular hIDO1 inhibitory activity and toxicity of 30 active compounds at a single concentration (Figure 6 and Table 8). As some of the aniline derivatives reacted with Ehrlich’s reagent (p-dimethylaminobenzaldehyde, p-DMAB) used to quantify kynurenine, the kynurenine content of these samples was determined by HPLC. To be able to detect also weak inhibition, compounds were tested at the high concentration of 200 µM (Figure 6A and B, filled bars), except for less soluble compounds (52, 148, 149 and 153), which were tested at a concentration of 50 µM (Figure 6A and B, empty bars).
The cDNA encoding hIDO1 (NCBI, NM 0021464.3) was purchased from Origene as pCMV6-Entry vector (RC206592). The full ORF of hIDO1 was cloned into the mammalian expression vector pcDNA6/myc-His from Invitrogen. Human embryonic kidney 293 T (HEK 293 T) cells were transiently transfected with the plasmid construct encoding hIDO1. A 75 cm^2 flask containing HEK 293 T cells at a confluency of 70% was transfected with jetPEI DNA transfection reagent (Polyplus-transfection), according to manufacturer’s protocol. A total of 20 µg of pcDNA-IDO1 along with 5 µg of pcDNA-GFP plasmid were used for the transfection; GFP was used to evaluate transfection efficiency prior to the cellular assays. 16–18 h post-transfection the 293 T cells were detached with trypsin, centrifuged, and re-suspended in 25 mL of DMEM medium without phenol red, supplemented with penicillin and streptomycin, 10% foetal bovine serum and 1 mM pyruvate (Gibco). Subsequently, 100 µL of cells were distributed to each well of two 96-well round-bottom plates that had been pre-loaded with 100 µL DMEM and the small organic test molecule in DMSO (for a final DMSO concentration of 2%). DMEM medium contains 78 µM L-Trp and was supplemented with 500 µM of L-Trp. Cells transfected with hIDO1 were incubated for 7 h at 37 °C in a CO2 incubator. The reaction was stopped in its linear phase by adding trichloroacetic acid (TCA) to the medium at a final concentration of 4%. Plates were centrifuged for 15 min at 4,000 rpm. 100 µL of supernatant was added to 100 µL of 2% (w/v) DMAB in glacial acetic acid. After 10 min the absorbance was measured at a wavelength of 480 nm to detect kynurenine formation. Alternatively, kynurenine content was determined by HPLC as done for the enzymatic assay.

HEK 293 T cells = assay: Cell viability / cellular toxicity (DAPI staining, cytometry); type: cell-based, human; conditions: compound 200 µM, 7 h
Procedure: as §1
Following DMSO (negative control) or inhibitor treatments, apoptotic cells were detected by 4′,6-diamidino-2-phenylindole (DAPI) staining. Briefly, after 7 h of incubation, cells were washed with PBS, resuspended in PBS with 1 µg/mL DAPI and immediately analysed using a BD LSR II cytometer. A 405 nm laser with 450/50 nm bandpass filter was used to collect data.

T2 sequence (P14902 whole entry): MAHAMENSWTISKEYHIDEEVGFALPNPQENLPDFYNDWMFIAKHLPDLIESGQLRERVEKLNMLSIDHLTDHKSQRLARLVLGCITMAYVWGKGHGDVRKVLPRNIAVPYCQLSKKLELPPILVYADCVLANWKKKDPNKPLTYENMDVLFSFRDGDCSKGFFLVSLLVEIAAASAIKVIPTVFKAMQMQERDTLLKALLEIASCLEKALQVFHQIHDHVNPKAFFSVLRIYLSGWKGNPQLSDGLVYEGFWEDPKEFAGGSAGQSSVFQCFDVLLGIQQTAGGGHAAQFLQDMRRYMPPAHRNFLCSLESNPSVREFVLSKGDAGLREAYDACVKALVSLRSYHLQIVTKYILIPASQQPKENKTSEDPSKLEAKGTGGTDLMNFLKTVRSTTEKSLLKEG
T1 sequence (P14902 whole entry): as above

| SMILES | IC50 [1] | melting point [°C] | LE [kcal/mol/HA] [1] [kcal/mol/HA] | inhibition at 200 µM (hIDO1) [%] | Tox. [%] (HEK 293 T cells) |
| --- | --- | --- | --- | --- | --- |
| c1ccc(CCOc2ccccc2-c2c[nH]nn2)cc1 [Compound 26, 4–(2-Phenethoxyphenyl)-1,2,3-triazole] | > 100 µM | 91 to 93 |  |  |  |
| OC(COc1ccccc1-c1cnn[nH]1)c1ccccc1 (centres unmarked) [Compound 27, 2–(2-(1H-1,2,3-triazol-5-yl)phenoxy)-1-phenylethan-1-ol] | > 500 µM | 153 to 155 |  |  |  |
| c1ccc(CCNc2ccccc2-c2cnn[nH]2)cc1 [Compound 28] | > 250 µM | 129 to 132 |  |  |  |
| Oc1ccc(F)cc1-c1cnn[nH]1 [Compound 34, 4-Fluoro-2-(1H-1,2,3-triazol-5-yl)phenol] | 0.14 µM | 186 to 188 | 0.72 |  |  |
| Cc1ccc(O)c(-c2cnn[nH]2)c1 [Compound 35, 4-Methyl-2-(1H-1,2,3-triazol-5-yl)phenol] | 0.55 µM | 160 to 162 | 0.66 |  |  |
| CCc1ccc(O)c(-c2cnn[nH]2)c1 [Compound 36, 4-Ethyl-2-(1H-1,2,3-triazol-5-yl)phenol] | 0.25 µM | 71 to 73 | 0.64 |  |  |
| CCCc1ccc(O)c(-c2cnn[nH]2)c1 [Compound 37, 4-Propyl-2-(1H-1,2,3-triazol-5-yl)phenol] | 0.75 µM | 138 to 140 | 0.56 |  |  |
| Oc1ccc(Cc2ccccc2)cc1-c1cnn[nH]1 [Compound 38, 4-Benzyl-2-(1H-1,2,3-triazol-5-yl)phenol] | 88 µM | 148 to 151 | 0.29 |  |  |
| Clc1cccc(-c2c[nH]nn2)c1OCCc1ccccc1 [Compound 43, 4–(3-Chloro-2-phenethoxyphenyl)-1,2,3-triazole] | 31 µM | 96 to 99 | 0.29 |  |  |
| Clc1ccc(-c2c[nH]nn2)c(Cl)c1 [Compound 48, 4–(2,4-Dichlorophenyl)-1,2,3-triazole] | 31 µM |  | 0.47 | 63 | 0 (0) % |
| Clc1ccc(-c2c[nH]nn2)cc1Cl [Compound 49, 4–(3,4-Dichlorophenyl)-1,2,3-triazole] | 51 µM |  | 0.45 | 65 | 0 (0) % |
| Clc1cc(Cl)c(-c2c[nH]nn2)c(Cl)c1 [Compound 53, 4–(2,4,6-Trichlorophenyl)-1,2,3-triazole] | > 500 µM | 236 to 238 |  |  |  |
| Cc1[nH]nnc1-c1cc(Cl)ccc1O [Compound 68, 4-Chloro-2–(5-methyl-1,2,3-triazol-4-yl)phenol] | 220 µM | 149 to 151 | 0.36 |  |  |
| Brc1ccc(Nc2c[nH]nn2)cc1 [Compound 78, N-(4-Bromophenyl)-1,2,3-triazol-4-amine, reference compound] | 52 µM |  | 0.45 | 97 | 0 (0) % |
| Nc1c(Cl)cccc1-c1nc[nH]n1 [Compound 141, 2-Chloro-6-(1H-1,2,4-triazol-3-yl)aniline] | 29 µM |  | 0.48 | 82 | 13 (4) % |
| Nc1cccc(N)c1-c1nc[nH]n1 [Compound 142, 2-(1H-1,2,4-triazol-3-yl)benzene-1,3-diamine] | 31 µM |  | 0.47 | 56 | 11 (0.4) % |
| CC(=O)Nc1ccc(Cl)cc1-c1nc[nH]n1 [Compound 146, N-(4-Chloro-2-(1H-1,2,4-triazol-3-yl)phenyl)acetamide] | 425 µM and 420 µM |  | 0.29 | 89 | 0 (0) % |

The next lines start with results.

| IC50 [1] | melting point [°C] | LE [kcal/mol/HA] [1] [kcal/mol/HA] | inhibition at 200 µM (hIDO1) [%] | SMILES | Tox. [%] (HEK 293 T cells) |
| --- | --- | --- | --- | --- | --- |
| 13 µM | 257 to 259 | 0.51 |  | Oc1cccc(O)c1-c1cnn[nH]1 [Compound 44, 2-(1H-1,2,3-triazol-5-yl)benzene-1,3-diol] |  |
| 31 µM |  | 0.44 | 37 | O=C(c1ccc(Cl)cc1)c1cnn[nH]1 [Compound 102, (4-Chlorophenyl)(1H-1,2,3-triazol-5-yl)methanone] | 0 (0) % |
| 200 µM |  | 0.34 | 22 | COc1ccc(C(=O)c2cnn[nH]2)cc1 [Compound 105, (4-Methoxyphenyl)(1H-1,2,3-triazol-5-yl)methanone] | 0 (0) % |
| 125 µM and 130 µM |  | 0.38 | 12 | O=C(c1cnn[nH]1)c1ccccc1O [Compound 106, (2-Hydroxyphenyl)(1H-1,2,3-triazol-5-yl)methanone] | 0 (0) % |
| 13 µM |  | 0.48 | 55 | O=C(c1ccc(Br)cc1)c1cnn[nH]1 [Compound 109, (4-Bromophenyl)(1H-1,2,3-triazol-5-yl)methanone] | 0 (0) % |
| 185 µM and 190 µM |  | 0.36 | 12 | O=C(c1ccc(F)cc1)c1cnn[nH]1 [Compound 110, (4-Fluorophenyl)(1H-1,2,3-triazol-5-yl)methanone] | 0 (0) % |
| 11 µM |  | 0.45 | 32 | O=C(c1cnn[nH]1)c1ccc(Cl)cc1O [Compound 112, (4-Chloro-2-hydroxyphenyl)(1H-1,2,3-triazol-5-yl)methanone] | 0 (0) % |
| 230 µM |  | 0.41 | 20 | O=C(c1cnn[nH]1)c1ccco1 [Compound 114, Furan-2-yl(1H-1,2,3-triazol-5-yl)methanone] | 0 (0) % |
| 16 µM |  | 0.55 | 73 | O=C(c1ccoc1)c1cnn[nH]1 [Compound 115, Furan-3-yl(1H-1,2,3-triazol-5-yl)methanone] | 0 (0) % |
| 17 µM |  | 0.54 | 62 | O=C(c1cnn[nH]1)c1cccs1 [Compound 116, Thiophen-2-yl(1H-1,2,3-triazol-5-yl)methanone] | 0 (0) % |
| 67 µM and 68 µM |  | 0.47 | 23 | O=C(c1ccsc1)c1cnn[nH]1 [Compound 117, Thiophen-3-yl(1H-1,2,3-triazol-5-yl)methanone] | 0 (0) % |
| 81 µM and 82 µM |  | 0.46 | 17 | O=C(c1cscn1)c1cnn[nH]1 [Compound 118, Thiazol-4-yl(1H-1,2,3-triazol-5-yl)methanone] | 0 (0) % |
| 650 µM |  | 0.33 | 3.9 | O=C(c1cccnc1)c1cnn[nH]1 [Compound 121, Pyridin-3-yl(1H-1,2,3-triazol-5-yl)methanone] | 0 (0) % |

Source: paper PMC9246256, “Structure-based optimization of type III indoleamine 2,3-dioxygenase 1 (IDO1) inhibitors” (Journal of Enzyme Inhibition and Medicinal Chemistry, 2022)
